≈ marks a conversion by molar mass, not a printed value. Like-named read-outs stand apart in the source and are kept apart here.
What was measured:
Type in all cases: cell-based
[1] = system: Escherichia coli EC-1: VOGEL, mouse virulent; test: MIC determination (CLSI), EC-1; settings: for MIC: Escherichia coli
Procedure: (§1) The in vitro antibacterial activity of compounds described in the Examples was evaluated by minimum inhibitory concentration (MIC) testing according to Clinical and Laboratory Standards Institute (CLSI, formerly NCCLS) guidelines. See: Clinical and Laboratory Standards Institute. Methods for Dilution Antimicrobial Susceptibility Tests for Bacteria that Grow Aerobically; Approved Standard-Seventh Edition. CLSI document M7-A7 [ISBN 1-56238-587-9]. Clinical and Laboratory Standards Institute, 940 West Valley Road, Suite 1400, Wayne, Pa. 19087-1898 USA, 2006; also Clinical and Laboratory Standards Institute. Performance Standards for Antimicrobial Susceptibility Testing; Eighteenth Informational Supplement. CLSI document M100-S18 [ISBN1-56238-653-0]. Clinical and Laboratory Standards Institute.
(§2) The following bacterial strains were used in these MIC determinations:
3) Escherichia coli EC-1: VOGEL, mouse virulent labeled as EC-1 in Tables 1, 2 and 3;

[2] = system: Klebsiella pneumoniae: Ciprofloxacin-resistant isolate, ESBL, clinical isolate (KP-3700); test: MIC determination (CLSI), KP-3700
Procedure: as §1, §2
4) Klebsiella pneumoniae: Ciprofloxacin-resistant isolate, expresses extended-spectrum beta-lactamases (ESBL), clinical isolate, labeled as KP-3700 in Tables 1, 2, and 3.

[3] = system: Pseudomonas aeruginosa UI-18: Wild-type (PA-7); test: MIC determination (CLSI), PA-7; settings: for MIC: Pseudomonas aeruginosa
Procedure: as §1, §2
1) Pseudomonas aeruginosa UI-18: Wild-type, labeled as PA-7 in Tables 1, 2 and 3;

[4] = system: Acinetobacter baumanii/haemolyticus: Multidrug-resistant clinical isolate (AB-3167); test: MIC determination (CLSI), AB-3167; settings: for MIC: Acinetobacter baumannii
Procedure: as §1, §2
2) Acinetobacter baumanii/haemolyticus: Multidrug-resistant clinical isolate labeled as AB-3167 in Tables 1, 2 and 3;

[5] = Escherichia coli EC-1 VOGEL, mouse virulent
[6] = Pseudomonas aeruginosa UI-18 wild-type PA-7
[7] = Acinetobacter baumanii/haemolyticus multidrug-resistant clinical isolate AB-3167

Compound | MIC ([1]; read-out: EC-1 MIC) [µg/mL] | KP-3700 MIC [2] | MIC ([3]; Table 3, read-out: PA-7 MIC) [µg/mL] | MIC ([4]; Table 3, read-out: AB-3167 MIC) [µg/mL] | EC-1 MIC [1, 5] [mg/L] | PA-7 MIC [3, 6] [mg/L] | AB-3167 MIC [4, 7] | further results
COc1ccc(F)c(-c2noc(COc3ccc(CCC(C)(C(=O)NO)S(C)(=O)=O)cc3)n2)c1 (stereo not drawn) [Example 259, 4-(4-{[3-(2-fluoro-5-methoxyphenyl)-1,2,4-oxadiazol-5-yl]methoxy}phenyl)-N-hydroxy-2-methyl-2-(methylsulfonyl)butanamide] | 16 (≈ 32.4 µM) | ≧64 mg/L | ≥ 64 | ≥ 64 | – | – | – | –
Cc1cccc(COc2ccc(CCC(C)(C(=O)NO)S(C)(=O)=O)cc2)c1F (stereo not drawn) [Example 262, 4-{4-[(2-fluoro-3-methylbenzyl)oxy]phenyl}-N-hydroxy-2-methyl-2-(methylsulfonyl)butanamide] | 1 (≈ 2.44 µM) | 8 mg/L | 2 (≈ 4.88 µM) | 16 (≈ 39.1 µM) | – | – | – | –
CC(CCc1ccc(OCc2nc(-c3cc(F)cc(F)c3)no2)cc1)(C(=O)NO)S(C)(=O)=O (stereo not drawn) [Example 255, 4-(4-{[3-(3,5-difluorophenyl)-1,2,4-oxadiazol-5-yl]methoxy}phenyl)-N-hydroxy-2-methyl-2-(methylsulfonyl)butanamide] | 16 (≈ 33.2 µM) | ≧64 mg/L | ≥ 64 | 16 (≈ 33.2 µM) | – | – | – | –
CSc1ccc(-c2ccc(CCC(C)(C(=O)NO)S(C)(=O)=O)cc2)cc1 (stereo not drawn) [Example 40] | – | 2 mg/L | – | – | 0.5 | 2 | 16 mg/L | –
CC(CCc1ccc(-c2cncnc2)cc1)(C(=O)NO)S(C)(=O)=O (racemic) [Example 80] | – | 32 mg/L | – | – | 8 | 8 | ≧64 mg/L | –
CC(CCc1ccc(-c2ccc(CC#N)cc2)cc1)(C(=O)NO)S(C)(=O)=O (stereo not drawn) [Example 106] | – | 8 mg/L | – | – | 2 | 1 | ≧64 mg/L | –
CC(C)Oc1ccc(CCC(C)(C(=O)NO)S(C)(=O)=O)cc1 (stereo not drawn) [Example 234, N-hydroxy-4-(4-isopropoxyphenyl)-2-methyl-2-(methylsulfonyl)butanamide] | ≥ 64 | ≧64 mg/L | 8 (≈ 24.3 µM) | ≥ 64 | – | – | – | –
COc1cc(-c2ccc(CCC(C)(C(=O)NO)S(C)(=O)=O)cc2)ccc1O (stereo not drawn) [Example 139] | – | ≧64 mg/L | – | – | 16 | 16 | ≧64 mg/L | –
Cc1cc(C)cc(-c2ccc(CCC(C)(C(=O)NO)S(C)(=O)=O)cc2)c1 (racemic) [Example 52] | – | 4 mg/L | – | – | 2 | 2 | 8 mg/L | –
CNS(=O)(=O)c1ccc(-c2ccc(CCC(C)(C(=O)NO)S(C)(=O)=O)cc2)cc1 (racemic) [Example 68] | – | 32 mg/L | – | – | 32 | 4 | ≧64 mg/L | –
CC(CCc1ccc(-c2ccccc2)cn1)(C(=O)NO)S(C)(=O)=O (stereo not drawn) [Example 4, N-Hydroxy-2-methyl-2-(methylsulfonyl)-4-(5-phenylpyridin-2-yl)butanamide] | – | ≧64 mg/L | – | – | – | – | – | MIC ([1]; read-out: EC-1: (MIC)): 16 µg/mL (≈ 45.9 µM); MIC ([3]; Table 1, MIC, read-out: PA-7 (MIC)): 8 µg/mL (≈ 23 µM); MIC ([4]; Table 1, MIC, read-out: AB-3167 (MIC)): ≥ 64 µg/mL
CC(C)(O)c1ccc(-c2ccc(CCC(C)(C(=O)NO)S(C)(=O)=O)cc2)cc1 (stereo not drawn) [Example 230] | – | 32 mg/L | – | – | – | – | – | EC-1 MIC ([1]; Escherichia coli EC-1): 8 mg/L; PA-7 MIC ([3]; Pseudomonas aeruginosa UI-18 (PA-7)): 8 mg/L; AB-3167 MIC ([4]; Acinetobacter baumanii/haemolyticus AB-3167): ≧64 mg/L
COC(C)c1ccc(-c2ccc(CCC(C)(C(=O)NO)S(C)(=O)=O)cc2)cc1 (mixture of isomers) [Example 71] | – | 16 mg/L | – | – | 4 | 4 | 32 mg/L | –
Cc1ccc(COc2ccc(CCC(C)(C(=O)NO)S(C)(=O)=O)cc2)cn1 (stereo not drawn) [Example 270, N-hydroxy-2-methyl-4-{4-[(6-methylpyridin-3-yl)methoxy]phenyl}-2-(methylsulfonyl)butanamide] | ≥ 64 | ≧64 mg/L | 32 (≈ 81.5 µM) | ≥ 64 | – | – | – | –
CC(CCc1ccc(OCc2nc(Cc3cc(F)ccc3F)no2)cc1)(C(=O)NO)S(C)(=O)=O (stereo not drawn) [Example 256, 4-(4-{[3-(2,5-difluorobenzyl)-1,2,4-oxadiazol-5-yl]methoxy}phenyl)-N-hydroxy-2-methyl-2-(methylsulfonyl)butanamide] | 32 (≈ 64.6 µM) | ≧64 mg/L | ≥ 64 | ≥ 64 | – | – | – | –

Source: patent US8853258B2, “C-linked hydroxamic acid derivatives useful as antibacterial agents” (Pfizer Inc., priority 2009, dated 2014)
